The values below come from PubChem BioAssay AID831 (PCMD, 2007).

The experiment deals with Cathepsin S (Homo sapiens) (UniProt P25774). The experiment is described as follows: IC50 of CTSS protease blockers – biochemical, confirmation, dose response (AID 831). Conditions: purified cathepsin S enzyme activity, fluorescence.

SMILES strings stand for the structures. Calls of active or inactive are those of the source. How the calls were made is not given here.

Cathepsin S (Homo sapiens), sequence (P25774 115-331 limits assumed): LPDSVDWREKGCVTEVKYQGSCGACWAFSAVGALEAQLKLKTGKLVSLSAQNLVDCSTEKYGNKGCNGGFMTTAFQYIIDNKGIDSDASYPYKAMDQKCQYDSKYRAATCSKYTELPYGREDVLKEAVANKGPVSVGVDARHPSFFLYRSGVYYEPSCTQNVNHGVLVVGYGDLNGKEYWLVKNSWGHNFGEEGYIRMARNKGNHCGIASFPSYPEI

Regarding `CC(=O)c1c(O)n(C)c(=S)n(-c2ccccc2)c1=O`, the IC50 was > 50 µM (inactive).

On to `CCN1CC=C2C(C#N)=C(N)C(C#N)(C#N)C(CCc3ccccc3)C2C1` (centres undefined), for which the IC50 is 6.55 µM.

Turning to `N#CC1=C(N)Oc2c(sc3ccccc23)C1c1ccco1` (centres undefined), the IC50 is > 50 µM (inactive).

Consider `CC1=C(C(=O)Nc2ccc(F)cc2)C(c2cccc(C)c2)n2nc(CCCO)nc2N1` (centres undefined), for which the IC50 is > 50 µM (inactive).

Usually IC50 stands for the concentration at which inhibition is half-maximal.
